Tests used:
Assay type in all cases: cell-based, human
primary hepatocytes = assay: 3D organoid culture of adult donor-derived primary hepatocytes (HepAOs): organoid formation and expansion; details: single hepatocyte suspensions from adult donors, supplemented EM, over 2 weeks (FIG. 1E)
Method: Human hepatic cells were counted and seeded at a concentration of 100 cells per μL of the ECM Matrigel™ (Corning™). The cell-ECM mix were seeded on 24 well plates Greiner™) that had been incubated 24 hours prior at 37° C. A total of 50 μL of Matrigel™ were added to the center of each well to form a dome shaped chamber and incubated for 5-8 minutes at 37° C. before adding 500 μμL of isolation medium to each well. Media specifications and storage times are indicated.
After 4 days, the isolation medium was substituted for expansion medium (EM) containing 10 μM ROCK inhibitor (Y-27632). The EM was replenished three times per week.
After the first 6 days in culture, the ROCK inhibitor was removed from the media. The cells within the ECM mix were expanded for 14 days to form organoids. After 14 days, the media was supplemented with 25 ng/mL of BMP7, and the organoids were cultured for 5 days before replacing the media with hepatocyte differentiation medium (DM). The DM were replenished every 3 days. At day 7 of differentiation, the organoids were used for analyses. […]
We assessed the organoid-forming efficiency at one week in single cell derived organoids (FIG. 1B and FIG. 1C). […]

HepG2 cells = assay: 3D organoid culture of HepG2 cells (HepGOs): organoid counts; details: compared to serum-containing growth media (HepG2 GM) (FIG. 3B)
Description: Well-differentiated hepatoma cell lines HepG2, PLC/PRF/5, and HuH7 were maintained as previously described. In initial studies, classical culture media was used, containing high glucose concentration (4.5 g/L) corresponding to systemic hyperglycemia. Low glucose concentrations corresponding to normoglycemia (1 g/L) were utilized in parallel to study the effects on cell proliferation. HepG2 cells were first cultured in monolayer. Once 80-90% confluence was reached the cells were collected and used to start the organoid culture. HepGOs were generated on 48 well tissue culture plates (Grenier™). The plates were left overnight at 37° C. before using them to plate the Matrigel™ matrix. Cells were plated at a concentration of approximately 40 cells per μL of Matrigel™. We used a 25 μL drop/well to form the organoid dome at the center and the organoid dome were overlaid with 250 μLs of human expansion medium (EM) with the multiple EM variations tested. The plates were then incubated for 7 days under standard tissue culture conditions (37° C. and 5% CO2). Media was changed every other day. After 7 days of expansion, the media was replaced with differentiation media (DM). The organoids were cultured for an additional 7 days, at which point the organoids were used for analysis.

HepGOs = assay: Glucose production assay in HepGOs; details: HepGOs expanded in EM+F+OSM, 24-hour starvation, 24 hours production (FIG. 7D)
Method: Prior to each glucose production assay, organoid cells were serum starved for 3 and 24 hours. The assay was done in 3D organoid culture media, containing no glucose or pyruvate. For substrate glucose production assays, the glucose production basal media (BM) were supplemented with either glycerol, glucagon, or a combination of both. Data were obtained by obtaining media from wells that contained 12-14 Matrigel™ droplets containing approximately 1,400 organoids. Glucose measurements were done enzymatically with a Glucose Assay Kit (Abcam™).
The HepGOs were starved for 3 or 24 hours and then allowed to produce glucose for 24 hours. The glucose production basal media (BM) was supplemented with either glycerol, glucagon, or a combination of the two. Data was obtained pooled organoids with a total of ˜70,000 organoid cells. The scale bar is 100 μm. (**p<0.01, *p<0.05).

G6PC = assay: Q-PCR expression of G6PC in organoids; details: fresh or frozen and re-expanded organoids, EM conditions C3-C5 (FIG. 5)
Method: (§1) RNA was first extracted from the differentiated organoids using Trizol™. RNA was used for cDNA synthesis using the iScript Kit (BioRad™). Quantitative PCR (Q-PCR) was performed for targets of interest including G6PC, PCK1, and AFP using Bio-Rad™ CFX96. Bio Rad™'s SYBR Green (SG), a asymmetrical cyanine dye used as a nucleic acid stain in Q-PCR super mix was used with the target-specific primers. See Table 3, below for a description of the primers used for hepatocyte expression. The data was analyzed using Excel™ and Prism 8™.
(§2) HepGOs were expanded for one month, and then media were supplemented with 25 ng/mL BMP7 for 5 days before replacing the media with hepatocyte DM for one week. The data are from experiments that were done in at least in duplicate with three replicates per condition and were normalized to the endogenous control (β-Actin) and HepG2 GM cultures. The scale bar is 100 μm.

PCK1 = assay: Q-PCR expression of PCK1 in organoids; details: fresh or frozen and re-expanded organoids, EM conditions C3-C5 (FIG. 5)
Method: as §1, §2

With `Cc1cccc(-c2nn(C(=S)Nc3ccccc3)cc2-c2ccnc3ccccc23)n1` [A8301] as the molecule, how does the “number of organoids formed / expansion” value (primary hepatocytes) read?
Its value is “showed the least number of organoids being formed”.

What about the HepGO number (HepG2 cells) of the same molecule?
The HepGO number was “significantly limited the 3D culture and expansion of HepG2 cells”.

With glucagon as the molecule, how does the glucose production (HepGOs) read?
Its glucose production is “significantly enhanced glucose production”.

B1: BMP7: bone morphogenetic protein 7 (protein, UniProt P18075 293-431, looked up)
Bone morphogenetic protein 7: STGSKQRSQNRSKTPKNQEALRMANVAENSSSDQRQACKKHELYVSFRDLGWQDWIIAPEGYAAYYCEGECAFPLNSYMNATNHAIVQTLVHFINPETVPKPCCAPTQLNAISVLYFDDSSNVILKKYRNMVVRACGCH
Which HepGO number (HepG2 cells) does the source give for B1 here?
Its HepGO number is “slightly but not significantly improved HepGO number”.

B2: OSM: oncostatin M, a member of the IL-6 family of cytokines (protein, UniProt P13725 26-221, looked up)
Oncostatin-M: AAIGSCSKEYRVLLGQLQKQTDLMQDTSRLLDPYIRIQGLDVPKLREHCRERPGAFPSEETLRGLGRRGFLQTLNATLGCVLHRLADLEQRLPKAQDLERSGLNIEDLEKLQMARPNILGLRNNIYCMAQLLDNSDTAEPTKAGRGASQPPTPTPASDAFQRKLEGCRFLHGYHRFMHSVGRVFSKWGESPNRSRR
For B2, which “induction of G6PC expression” value (G6PC) is on record?
Its value is “tend to decrease at one month post differentiation”.

What about the “induction of PCK1 expression” value (PCK1) of the same molecule?
Its value is “tend to decrease at one month post differentiation”.

— patent US20230265393A1, “COMPOSITION AND METHODS FOR PRODUCING ADULT LIVER ORGANOIDS” (Rutgers, the State University of New Jersey, priority 2021, published 2023)
